Test results reported in patent publication US20240041042A1, “1-(PYRIDYL)-5-AZINYLPYRAZOLE DERIVATIVES, AND THEIR USE FOR CONTROL OF UNDESIRED PLANT GROWTH” (Bayer Aktiengesellschaft, priority 2020, published 2024).
Like-named read-outs stand apart in the source and are kept apart here.

How the values were obtained:
Assay type in all cases: in vivo
[1] = tested on: Alopecurus myosuroides (ALOMY); experiment: Pre-emergence herbicidal action against ALOMY; settings: 320 g/ha; scored visually after about 3 weeks; 100% = plants have died
Summary of the method: (§1)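 Seeds sown in pots and covered with soil; WP or EC formulations sprayed onto the soil surface at 600 l/ha water with 0.5% additive, at 320 g/ha or lower. Greenhouse growth for about 3 weeks, then visual scoring as % effect against untreated controls (100% = plants dead).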

[2] = tested on: Amaranthus retroflexus (AMARE); experiment: Pre-emergence herbicidal action against AMARE; settings: 320 g/ha, visual scoring after about 3 weeks vs untreated controls
Summary of the method: as §1

Avena fatua (AVEFA) [3] = experiment: Pre-emergence herbicidal action against AVEFA; settings: 320 g/ha, visual scoring after about 3 weeks vs untreated controls
Summary of the method: as §1

[4] = tested on: Digitaria sanguinalis (DIGSA); experiment: Pre-emergence herbicidal action against DIGSA
Summary of the method: as §1

[5] = tested on: Echinochloa crus-galli (ECHCG); experiment: Pre-emergence herbicidal action against ECHCG
Summary of the method: as §1

Lolium rigidum (LOLRI) [6] = experiment: Pre-emergence herbicidal action against LOLRI
Summary of the method: as §1

[7] = tested on: Matricaria inodora (MATIN); experiment: Pre-emergence herbicidal action against MATIN; settings: dosage 320 g/ha
Summary of the method: as §1

Setaria viridis (SETVI) [8] = experiment: Pre-emergence herbicidal action against SETVI
Summary of the method: as §1

[9] = tested on: Verconica persica (VERPE); experiment: Pre-emergence herbicidal action against VERPE; settings: dosage 320 g/ha
Summary of the method: as §1

Viola tricolor (VIOTR) [10] = experiment: Pre-emergence herbicidal action against VIOTR
Summary of the method: as §1

Glycine max (GLXMA) = settings: pre-emergence, crop plant compatibility, in comparison to untreated controls
Summary of the method: (§2)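 Crop injury rated visually in percent against untreated plants roughly 3 weeks after treatment (0% no effect, 100% plants dead). Compounds, as WP or EC with 0.5% additive in 600 l/ha water, were applied to the covering soil right after sowing; greenhouse growth. Suffixes a, b, c denote different dosages.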

[11] = tested on: Alopecurus myosuroides (ALOMY); experiment: Post-emergence herbicidal action against ALOMY; settings: 320 g/ha, visual rating about 3 weeks after treatment vs untreated controls (100% = plants have died, 0% = like control plants)
Summary of the method: (§3)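 Rates were 320 g/ha or below, applied as aqueous WP/EC spray with 0.5% additive (600 l/ha) onto one-leaf-stage plants. About 3 weeks later in the greenhouse, damage was scored visually against untreated plants on a 0–100% scale, where 100% means plants died.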

[12] = tested on: Amaranthus retroflexus (AMARE); experiment: Post-emergence herbicidal action against AMARE
Summary of the method: as §3

Avena fatua (AVEFA) [13] = experiment: Post-emergence herbicidal action against AVEFA; settings: visual rating about 3 weeks after treatment
Summary of the method: as §3

[14] = tested on: Digitaria sanguinalis (DIGSA); experiment: Post-emergence herbicidal action against DIGSA; settings: 320 g/ha, visual rating about 3 weeks after treatment
Summary of the method: as §3

[15] = tested on: Echinochloa crus-galli (ECHCG); experiment: Post-emergence herbicidal action against ECHCG
Summary of the method: as §3

Lolium rigidum (LOLRI) [16] = experiment: Post-emergence herbicidal action against LOLRI
Summary of the method: as §3

[17] = tested on: Matricaria inodora (MATIN); experiment: Post-emergence herbicidal action against MATIN; settings: dosage 320 g/ha
Summary of the method: as §3

[18] = tested on: Pharbitis purpurea (PHBPU); experiment: Post-emergence herbicidal action against PHBPU; settings: dosage 320 g/ha
Summary of the method: as §3

[19] = tested on: Polygonum convolvulus (POLCO); experiment: Post-emergence herbicidal action against POLCO
Summary of the method: as §3

Setaria viridis (SETVI) [20] = experiment: Post-emergence herbicidal action against SETVI
Summary of the method: as §3

[21] = tested on: Verconica persica (VERPE); experiment: Post-emergence herbicidal action against VERPE
Summary of the method: as §3

Viola tricolor (VIOTR) [22] = experiment: Post-emergence herbicidal action against VIOTR
Summary of the method: as §3

Oryza sativa (ORYSA) [23] = settings: crop plant compatibility, effect in comparison to untreated controls
Summary of the method: (§4)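 Effects were read visually as % versus untreated controls (0% = no effect, 100% = death) about 3 weeks post-treatment. Application was a post-emergence spray at the one-leaf stage of WP/EC formulations with 0.5% additive at 600 l/ha. Different dosages are denoted a, b and c.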

Oryza sativa (ORYSA) [24] = settings: pre-emergence, crop plant compatibility, in comparison to untreated controls
Summary of the method: as §2

Zea mays (ZEAMX) [25] = settings: pre-emergence, crop plant compatibility, in comparison to untreated controls
Summary of the method: as §2

Zea mays (ZEAMX) [26] = settings: crop plant compatibility, 80 g/ha, effect vs untreated controls
Summary of the method: as §4

[27] = tested on: Polygonum convolvulus (POLCO); experiment: Pre-emergence herbicidal action against POLCO; settings: dosage 320 g/ha
Summary of the method: as §1

[28] = 320 g/ha, visual rating about 3 weeks after treatment

Pre-emergence action against GLXMA in % (Glycine max (GLXMA); 80 g/ha) [%]	Post-emergence action against ORYSA in % (Oryza sativa (ORYSA) [23]; 80 g/ha) [%]	Pre-emergence action against ZEAMX in % (Zea mays (ZEAMX) [25]; 80 g/ha) [%]	Post-emergence action against ORYSA in % (Oryza sativa (ORYSA) [23]; 320 g/ha) [%]	Post-emergence action against ZEAMX in % (Zea mays (ZEAMX) [26]) [%]	Compound	Pre-emergence action against ALOMY [1] [%]	Pre-emergence action against AMARE in % [2] [%]	Pre-emergence action against DIGSA in % ([4]; dosage 320 g/ha) [%]	Pre-emergence action against LOLRI in % (Lolium rigidum (LOLRI) [6]; dosage 320 g/ha) [%]	Pre-emergence action against VIOTR in % (Viola tricolor (VIOTR) [10]; 320 g/ha, Viola tricolor) [%]	Post-emergence action against ALOMY in % [11] [%]	Post-emergence action against AMARE in % [12, 28] [%]	Post-emergence action against DIGSA in % [14] [%]	Post-emergence action against LOLRI in % (Lolium rigidum (LOLRI) [16]; dosage 320 g/ha) [%]	Post-emergence action against PHBPU in % [18] [%]	Post-emergence action against POLCO in % ([19]; dosage 320 g/ha) [%]	Post-emergence action against VERPE in % ([21]; 320 g/ha, VERPE) [%]	Post-emergence action against VIOTR in % (Viola tricolor (VIOTR) [22]; 80 g/ha) [%]	Post-emergence action against VIOTR in % (Viola tricolor (VIOTR) [22]; 320 g/ha) [%]	also measured
20	20	–	–	–	COC(=O)[C@@H](C)Oc1nn(-c2nc(F)ccc2F)c(-c2ccc(F)nc2)c1C1CC1 [Example I-298]	90	100	100	100	100	90	80	80	90	90	80	80	80	90	Pre-emergence action against AVEFA in % (Avena fatua (AVEFA) [3]): 90%; Pre-emergence action against DIGSA in % ([4]; 80 g/ha, visual scoring after about 3 weeks vs untreated controls): 100%; Pre-emergence action against ECHCG in % ([5]; dosage 80 g/ha): 90%; Pre-emergence action against ECHCG in % ([5]; dosage 320 g/ha): 100%; Pre-emergence action against LOLRI in % (Lolium rigidum (LOLRI) [6]; dosage 80 g/ha): 90%; Pre-emergence action against MATIN in % [7]: 90%; Pre-emergence action against SETVI in % (Setaria viridis (SETVI) [8]; dosage 80 g/ha): 100%; Pre-emergence action against SETVI in % (Setaria viridis (SETVI) [8]; dosage 320 g/ha): 100%; Pre-emergence action against VERPE in % [9]: 100%; Pre-emergence action against VIOTR in % (Viola tricolor (VIOTR) [10]; dosage 80 g/ha): 100%; Post-emergence action against AVEFA in % (Avena fatua (AVEFA) [13]; 80 g/ha): 80%; Post-emergence action against AVEFA in % (Avena fatua (AVEFA) [13]; 320 g/ha): 90%; Post-emergence action against ECHCG in % ([15]; dosage 80 g/ha): 80%; Post-emergence action against ECHCG in % ([15]; dosage 320 g/ha): 90%; Post-emergence action against LOLRI in % (Lolium rigidum (LOLRI) [16]; dosage 80 g/ha): 90%; Post-emergence action against MATIN in % [17]: 80%; Post-emergence action against SETVI in % (Setaria viridis (SETVI) [20]; dosage 80 g/ha): 90%; Post-emergence action against SETVI in % (Setaria viridis (SETVI) [20]; dosage 320 g/ha): 90%; Post-emergence action against VERPE in % ([21]; dosage 80 g/ha): 80%
20	10	0	20	20	C[C@@H](Oc1nn(-c2ccnc(Cl)c2)c(-c2ccc(F)nc2)c1Br)C(=O)O [III-30]	–	–	–	–	–	80	90	–	–	–	90	80	–	80	Pre-emergence action against GLXMA in % (Glycine max (GLXMA); 320 g/ha): 20%; Pre-emergence action against ORYSA in % (Oryza sativa (ORYSA) [24]; 80 g/ha): 10%; Pre-emergence action against ORYSA in % (Oryza sativa (ORYSA) [24]; 320 g/ha): 20%; Pre-emergence action against ZEAMX in % (Zea mays (ZEAMX) [25]; 320 g/ha): 10%; Post-emergence action against AMARE in % ([12]; 80 g/ha, visual rating about 3 weeks after treatment vs untreated controls (100% = plants have died, 0% = like control plants)): 80%
0	–	0	0	20	COC(=O)CCOC(=O)[C@@H](C)Oc1nn(-c2ccccn2)c(-c2ccc(Cl)nc2)c1Br [Example I-244]	90	90	90	100	90	80	–	80	80	80	80	–	80	80	Pre-emergence action against POLCO in % [27]: 80%; Post-emergence action against POLCO in % ([19]; dosage 80 g/ha): 80%
